Laboratory results taken from patent US7786141B2 (Vertex Pharmaceuticals Incorporated, priority 2004, dated 2010).

How the values were obtained:
M4 muscarinic receptor = target: T1, M4 muscarinic receptor (Homo sapiens, UniProt P08173); experiment: Functional mobilization of intracellular calcium (FLIPR) in M4-CHO cells; type: cell-based; conditions: M4 receptor, calcium mobilization; for Emax: read-out: M4 Efficacy
T1 construct: expressed in transfected cells; host or cells: CHO (M4-CHO)
T1 sequence (P08173 1-479): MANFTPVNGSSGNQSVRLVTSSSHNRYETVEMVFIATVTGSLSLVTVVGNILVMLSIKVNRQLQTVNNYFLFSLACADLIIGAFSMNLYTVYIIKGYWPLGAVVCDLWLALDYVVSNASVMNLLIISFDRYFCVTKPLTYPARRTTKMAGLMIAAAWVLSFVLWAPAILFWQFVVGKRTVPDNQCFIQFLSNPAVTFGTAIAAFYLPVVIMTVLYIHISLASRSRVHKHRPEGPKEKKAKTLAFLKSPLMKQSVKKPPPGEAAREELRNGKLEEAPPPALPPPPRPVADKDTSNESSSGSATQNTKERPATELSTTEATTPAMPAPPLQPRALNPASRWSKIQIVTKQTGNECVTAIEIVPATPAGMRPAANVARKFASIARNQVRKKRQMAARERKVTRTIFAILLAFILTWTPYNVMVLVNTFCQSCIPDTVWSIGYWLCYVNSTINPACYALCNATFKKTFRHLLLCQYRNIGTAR
Method in brief: (§1)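 CHO cells stably expressing human M1 or M4 receptor were loaded with Fluo-3 AM (or Calcium 3 dye) in Hepes-buffered saline, pH 7.4, with 1 mM probenecid, 0.5% final DMSO. Agonist mode: compound added directly; antagonist mode: 15 min preincubation before carbachol at EC80. FLIPR fluorescence recorded 60 sec.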

M1 muscarinic receptor = target: T2, M1 muscarinic receptor (Homo sapiens, UniProt P11229); experiment: Functional mobilization of intracellular calcium (FLIPR) in M1-CHO cells; type: cell-based; conditions: M1 receptor, calcium mobilization; for Emax: read-out: M1 Efficacy
T2 construct: expressed in transfected cells; host or cells: CHO (M1-CHO)
T2 sequence (P11229 1-460): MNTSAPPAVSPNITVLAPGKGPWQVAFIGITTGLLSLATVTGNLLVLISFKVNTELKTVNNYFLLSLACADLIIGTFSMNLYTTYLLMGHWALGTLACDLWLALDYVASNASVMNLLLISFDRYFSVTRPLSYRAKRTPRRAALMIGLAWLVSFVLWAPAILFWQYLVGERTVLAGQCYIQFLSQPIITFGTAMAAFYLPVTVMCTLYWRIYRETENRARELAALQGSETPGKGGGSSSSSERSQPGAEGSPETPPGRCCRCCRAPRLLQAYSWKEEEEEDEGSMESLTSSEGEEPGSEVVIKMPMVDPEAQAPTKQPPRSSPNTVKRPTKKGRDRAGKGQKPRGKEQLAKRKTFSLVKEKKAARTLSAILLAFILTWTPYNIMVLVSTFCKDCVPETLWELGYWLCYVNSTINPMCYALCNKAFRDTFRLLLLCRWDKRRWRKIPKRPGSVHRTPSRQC
Method in brief: as §1

| SMILES | M4 Activity (M4 muscarinic receptor) | Emax (M4 muscarinic receptor) | M1 Activity (M1 muscarinic receptor) | Emax (M1 muscarinic receptor) | M4 Efficacy (M4 muscarinic receptor) | M1 Efficacy (M1 muscarinic receptor) |
| --- | --- | --- | --- | --- | --- | --- |
| COC(=O)N1CCC(CN2CCC3(CC2)C[C@H](NC(C)=O)c2ccccc23)CC1 [compound 182] | x (activity was measured to be greater than 1.0 μM) | 65 to 85% | x (activity was measured to be greater than 1.0 μM) | 65 to 85% |  |  |
| Fc1ccc2c(c1)C1(CCN(CC3CC4C=CC3C4)CC1)CN2 (stereo not drawn) [compound 183] | x (activity was measured to be greater than 1.0 μM) | 65 to 85% | xx (activity was measured to be between 0.1 μM and 1.0 μM) | 65 to 85% |  |  |
| CC(=O)N[C@H]1CC2(CCN(CC3CCCCC3)CC2)c2ccccc21 [compound 184] | x (activity was measured to be greater than 1.0 μM) | 65 to 85% | xx (activity was measured to be between 0.1 μM and 1.0 μM) | > 85% |  |  |
| CC(=O)NC1CC2(CCN(CC3CC4C=CC3C4)CC2)c2ccccc21 (stereo not drawn) [compound 185] | x (activity was measured to be greater than 1.0 μM) |  | x (activity was measured to be greater than 1.0 μM) |  | xx (efficacy was calculated to be between 85% and 65%) | xx (efficacy was calculated to be between 85% and 65%) |
| O=C(OCC(F)F)N1C2CCC1CC(N1CCC3(CC1)COc1ccc(F)cc13)C2 (stereo not drawn) [compound 186] | x (activity was measured to be greater than 1.0 μM) | 65 to 85% | xxx (activity was measured to be less than 0.1 μM) | > 85% |  |  |
| CC(=O)N1CC2(CCN(CC3CCCC3)CC2)c2cc(F)ccc21 [compound 187] | x (activity was measured to be greater than 1.0 μM) | 65 to 85% | xx (activity was measured to be between 0.1 μM and 1.0 μM) | 65 to 85% |  |  |
| CN(C)C(=O)N1CC2(CCN(C3CC4CCC(C3)N4C(=O)O[C@@H]3CCOC3)CC2)c2cc(F)ccc21 (stereo partly drawn) [compound 188] | x (activity was measured to be greater than 1.0 μM) | 65 to 85% | x (activity was measured to be greater than 1.0 μM) | < 65% |  |  |
| CCOC(=O)N1C2CCC1CC(N1CCC3(CC1)CN(C(=O)c1cc(C)nn1C(C)(C)C)c1ccc(F)cc13)C2 (stereo not drawn) [compound 189] | x (activity was measured to be greater than 1.0 μM) | 65 to 85% | xxx (activity was measured to be less than 0.1 μM) | 65 to 85% |  |  |
| CC(=O)N(C)[C@H]1CC2(CCN(C[C@H]3C[C@H]4CC[C@H]3C4)CC2)c2ccccc21 [compound 190] | x (activity was measured to be greater than 1.0 μM) | 65 to 85% | x (activity was measured to be greater than 1.0 μM) | > 85% |  |  |
| CCOC(=O)N1CCC(N2CCC3(CC2)C(=O)Nc2ccccc23)CC1 [compound 191] | x (activity was measured to be greater than 1.0 μM) | 65 to 85% | xxx (activity was measured to be less than 0.1 μM) | 65 to 85% |  |  |
| COC(=O)N1CC2(CCN(C3CC4CCC(C3)N4C(=O)O[C@@H]3CCOC3)CC2)c2cc(F)ccc21 (stereo partly drawn) [compound 192] | x (activity was measured to be greater than 1.0 μM) | 65 to 85% | xxx (activity was measured to be less than 0.1 μM) | 65 to 85% |  |  |
| CCOC(=O)N1CCC(N2CCC3(CC2)CN(C(C)=O)c2ccc(-c4ccc(OC)cc4)cc23)CC1 [compound 193] | x (activity was measured to be greater than 1.0 μM) | < 65% | x (activity was measured to be greater than 1.0 μM) | < 65% |  |  |
